Data published in patent US9156796B2, “Benzoimidazole-carboxylic acid amide derivatives as APJ receptor modulators” (SANOFI, priority 2013, dated 2015).

The compounds below were run against T1, human apelin receptor (Homo sapiens, UniProt P35414) (assay: Determination of agonism on the human apelin receptor by a calcium fluorescence assay (FLIPR)). Details: HEK293 cells stably transfected with human apelin receptor and Giaq protein, Fluo-4 calcium fluorescence, read-out: EC50 (APJ agonism).
T1 construct: expressed in transfected cells
T1 sequence (P35414 1-380): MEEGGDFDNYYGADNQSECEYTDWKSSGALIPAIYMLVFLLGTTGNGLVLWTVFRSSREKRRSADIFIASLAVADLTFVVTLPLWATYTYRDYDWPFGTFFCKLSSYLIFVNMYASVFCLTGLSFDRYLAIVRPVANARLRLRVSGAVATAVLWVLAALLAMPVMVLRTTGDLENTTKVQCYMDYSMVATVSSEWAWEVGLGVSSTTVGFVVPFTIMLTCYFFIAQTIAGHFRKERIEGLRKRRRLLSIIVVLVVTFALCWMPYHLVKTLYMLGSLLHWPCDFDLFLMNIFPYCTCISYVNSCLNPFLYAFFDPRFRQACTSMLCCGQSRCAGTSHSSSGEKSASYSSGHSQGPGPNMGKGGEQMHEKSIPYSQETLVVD
Type: cell-based
In short: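 HEK293 cells stably co-expressing human apelin receptor and promiscuous Giaq, loaded 1 h at 37 °C with Fluo-4 (4 μM) in probenecid-containing Hepes buffer, pH 7.4. Compounds, at least 7 concentrations in triplicate, added in FLIPR Tetra; peak calcium fluorescence normalized to 1 μM apelin-13 as 100% to derive EC50.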
Work on `CCC(CC)n1c(Cc2cccs2)nc2cc(C(=O)N[C@@H](CC(C)C)[C@@H](O)C(=O)O)ccc21` [Example 67, (2R,3S)-3-{[1-(1-Ethyl-propyl)-2-thiophen-2-ylmethyl-1H-benzoimidazole-5-carbonyl]-amino}-2-hydroxy-5-methyl-hexanoic acid] yielded an EC50 of 0.079 µM.
`Cc1ccc(-n2c(Cc3cccs3)nc3cc(C(=O)N[C@@H](CC(C)C)C(=O)O)ccc32)cc1` [Example 115, (S)-4-Methyl-2-[(2-thiophen-2-ylmethyl-1-p-tolyl-1H-benzoimidazole-5-carbonyl)-amino]-pentanoic acid] was tested, and the EC50 was 34.6 µM.
`CCC(CC)n1c(Cc2cccs2)nc2cc(C(=O)NC(CC3CCC(C)(C)CC3)C(=O)O)ccc21` (stereo not drawn) [Example 29, 3-(4,4-Dimethyl-cyclohexyl)-2-{[1-(1-ethyl-propyl)-2-thiophen-2-ylmethyl-1H-benzoimidazole-5-carbonyl]-amino}-propionic acid] was tested, and the EC50 was 5.66 µM.
`CCC(C)Cn1c(Cc2cccs2)nc2cc(C(=O)N[C@@H](CC(C)C)C(=O)O)ccc21` (stereo partly drawn) [Example 113, (S)-4-Methyl-2-{[1-(2-methyl-butyl)-2-thiophen-2-ylmethyl-1H-benzoimidazole-5-carbonyl]-amino}-pentanoic acid] gave an EC50 of 21.7 µM.
In the case of `CCC(CC)n1c(Cc2cccs2)nc2cc(C(=O)N[C@@H](CC(C)C)C(=O)N3CCC(N4CCC(C)CC4)C3)ccc21` (stereo partly drawn) [Example 300, 1-(1-Ethyl-propyl)-2-thiophen-2-ylmethyl-1H-benzoimidazole-5-carboxylic acid {(S)-3-methyl-1-[3-(4-methyl-piperidin-1-yl)-pyrrolidine-1-carbonyl]-butyl}-amide], the EC50 is reported as 0.732 µM.
`CCC(CC)n1c(Cc2cccs2)nc2cc(C(=O)N[C@@H](CC(C)C)C(=O)NCCCOCC3CC3)ccc21` [Example 391, 1-(1-Ethyl-propyl)-2-thiophen-2-ylmethyl-1H-benzoimidazole-5-carboxylic acid [(S)-1-(3-cyclopropylmethoxy-propylcarbamoyl)-3-methyl-butyl]-amide] showed an EC50 of 2.18 µM.
For `CC(C)C[C@@H](CC(=O)O)NC(=O)c1ccc2c(c1)nc(Cc1ccco1)n2C1CCCCC1C` (single isomer, unassigned) [Example 434], the EC50 was 0.425 µM.
In the case of `CCC(CC)n1c(Cc2cccs2)nc2cc(C(=O)N[C@@H](CC(C)C)C(=O)Nc3ccc(F)cc3)ccc21` [Example 228, 1-(1-Ethyl-propyl)-2-thiophen-2-ylmethyl-1H-benzoimidazole-5-carboxylic acid [(S)-1-(4-fluoro-phenylcarbamoyl)-3-methyl-butyl]-amide], the EC50 is reported as 8.5 µM.
For `CCC(CC)n1c(Cc2cccs2)nc2cc(C(=O)N[C@@H](CC(C)C)C(=O)NCCN3CCCCC3)ccc21` [Example 233, 1-(1-Ethyl-propyl)-2-thiophen-2-ylmethyl-1H-benzoimidazole-5-carboxylic acid [(S)-3-methyl-1-(2-piperidin-1-yl-ethylcarbamoyl)-butyl]-amide], the EC50 was 0.394 µM.
`CCC(CC)n1c(Cc2cccs2)nc2cc(C(=O)N[C@@H](CC(C)C)C(=O)NC3CCN(Cc4ccccn4)CC3)ccc21` [Example 295, 1-(1-Ethyl-propyl)-2-thiophen-2-ylmethyl-1H-benzoimidazole-5-carboxylic acid [(S)-3-methyl-1-(1-pyridin-2-ylmethyl-piperidin-4-ylcarbamoyl)-butyl]-amide] was tested, and the EC50 was 1.83 µM.
Compound `CCC(CC)n1c(Cc2cccs2)nc2cc(C(=O)N[C@@H](CC(C)C)C(=O)N(CC)CC3CCCCO3)ccc21` (stereo partly drawn) [Example 396, 1-(1-Ethyl-propyl)-2-thiophen-2-ylmethyl-1H-benzoimidazole-5-carboxylic acid {(S)-1-[ethyl-(tetrahydro-pyran-2-ylmethyl)-carbamoyl]-3-methyl-butyl}-amide] has an EC50 of 4.04 µM.
`CC(C)C[C@H](NC(=O)c1ccc2c(c1)nc(CC1CCCC1)n2CC(C)C)C(=O)O` [Example 128, (S)-2-[(2-Cyclopentylmethyl-1-isobutyl-1H-benzoimidazole-5-carbonyl)-amino]-4-methyl-pentanoic acid] was tested, and the EC50 was 10 µM.
